Assay results as given in publication PMC7070382, “Cannabidiol Protects Dopaminergic Neurons in Mesencephalic Cultures against the Complex I Inhibitor Rotenone Via Modulation of Heme Oxygenase Activity and Bilirubin” (Antioxidants, 2020).

How the values were obtained:
[1] = system: T1, heme oxygenase (HO); assay: in vitro HO activity (hemin to bilirubin, spectrophotometric) in cell homogenate; Lineweaver-Burk kinetics; format: biochemical
T1 construct: gene Hmox1; endogenous enzyme in J774A.1 cell homogenate; isoform not specified

[2] = system: T1, heme oxygenase (HO); assay: in vitro HO activity (hemin to bilirubin, spectrophotometric) in cell homogenate; format: biochemical

| Structure (SMILES) | IC50 [1] | IC50 [2] |
| --- | --- | --- |
| C=C(C)[C@@H]1CCC(C)=C[C@H]1c1c(O)cc(CCCCC)cc1O [CBD, cannabidiol] | 30 µM |  |
| CCCCCc1cc(O)c2c(c1)OC(C)(C)[C@@H]1CCC(C)=C[C@@H]21 [THC, tetrahydrocannabinol] |  | 56 µM |
